Like-named read-outs stand apart in the source and are kept apart here.
Key:
[1] = zinc binding motif, well known; cited from earlier work
[2] = tested on: PC3 prostate cancer cells; details: PC3 xenograft
Method: (§1) Human cell lines (A549 lung carcinoma, PC3 and DU145 prostatic carcinoma, and potentially others) were used. Mice received XRT (whole body radiation) up to 2 days prior to inoculation to minimize tumor regression due to residual immunological systems. The animal was administered a sub-lethal dose of whole body radiation of up to 4.5 Gy. The published literature indicates the LD50/30 dose for whole body radiation in the mouse to be 6.2 Gy. At the time of tumor implantation, mice were anesthetized by isoflurane inhalation or by IP injection of a ketamine/xylazine cocktail. Using vernier calipers, tumor size was measured; and tumor volume calculated on day 0 of study, at a minimum of 2-3 times/week and immediately prior to scheduled sacrifice. The tumor volume was estimated using the formula for a prolate ellipsoid: V=[(length)×(width)^2]/2 or hemi-ellipsoid: V=π/6×(length)×(width)×(height). When tumors reached a predetermined tumor volume animals were divided into treatment groups followed by test/control article dosing. Maximum allowable tumor burden prior to sacrifice is a mean surface diameter of 20 mm or not more than 10% of the animal's body weight as described in the NIH tumor burden guidelines for mice.
In this example, the ionophore was formulated in 5% mannitol.

[3] = tested on: cell lines including A549 lung, PC3 prostate, K1 and E89 Chinese hamster ovary (CHO), Ramos, DHL-4, and HF-1 B-cell lymphoma; experiment: standard tetrazolide reduction proliferation assay; assay type: cell-based; details: ZnHPT formed in situ from HPT and zinc
Method: The proliferation of exponential phase cultures of A549 and PC3 cells is assessed by formazan reduction. In brief, A549 (2000 cells/well) or PC3 (4000 cells/well) cells are seeded on 96-well microtiter plates and allowed to adhere overnight. Stock solutions of ZnHPT or PEGZnHPT in medium are serial diluted in a ratio of 1:4 down the plate. Stock solutions of MGd or ZnOAc2 or 5% mannitol in ACS grade water are added and plates are incubated at 37° C. under a 5% CO2/95% air atmosphere. After 24 hours, medium is replaced with fresh medium. After 2 additional days, medium is exchanged for fresh medium (150 μL/well) supplemented with the tetrazolium dye, 3-(4,5-dimethylthiazol-2-yl)-2,5-diphenyltetrazolium bromide (MTT, Sigma Chemical, 0.5 mg/mL). Plates are incubated at 37° C. and viable cells measured. […] Alternatively cellular reduction within plateau phase cultures is measured after 24 hours of treatment as a measure of the cytotoxicity due to treatment.

thioredoxin reductase = details: cells co-treated with MGd and ZnHPT, previously found
Method: Thioredoxin reductase activity is assessed by measuring the rate of lipoate reduction. In brief, A549 or PC3 cells (10,000 cells/well) are plated on 96-well plates and allowed to adhere overnight and grow two additional days until confluent. Cells are treated with ZnHPT, PEGZnHPT, MGd, zinc, or 5% mannitol as above for 4 hours. Medium is removed, cells are washed with Hanks Balanced Salt Solution (HBSS), and a solution of 5 mM lipoic acid and 1 mM 5,5′-dithiobis(2-nitrobenzoic acid) in HBSS (100 μL/well) is added. Plates are incubated at ambient temperature in the dark. At chosen time intervals, plate absorbance is measured at 405-650 nm. Plate absorbances are normalized to wells containing neither exogenous zinc nor texaphyrin complex to allow plate-to-plate comparison.

[4] = cited from earlier work
cancer cells [5] = details: reported; cited from earlier work
[6] = tested on: DU145 prostate cancer cells; details: DU145 xenograft, intravenous 60 μmol/kg q.d.×4, formulated in 30% THPB-P beta-cyclodextrin vehicle, FIG. 31
Method: as §1

[7] = tested on: A549 human lung cancer cells; details: A549 xenograft, FIG. 28
Method: as §1

[8] = mouse, in vivo
cancer cells [9] = experiment: intracellular free zinc in cancer cells; assay type: cell-based; details: previously found
Method: The concentration of intracellular free zinc is assessed using the ion-specific fluorescent probe, FluoZin-3-AM-(FluoZin-3, Molecular Probes, Inc.). […] Following treatment, cells are isolated by centrifugation. Cell pellets are washed and re-suspended in a solution of 0.5% BSA in PBS. An aliquot of 10^6 cells (200 μL) is removed, centrifuged, and treated with FluoZin-3 reaction buffer An aliquot of the cell suspension is supplemented with 2 μg/mL propidium iodide (Sigma Biochemical), incubated for 5 minutes, and subjected to two-parameter flow cytometric analysis. See, e.g., FIG. 27.

**Q.** With Zinquin as the molecule, how does the logKβ2 [1] read?
**A.** The logKβ2 was “ca. 18”.

**Q.** Which “anticancer activity (tumor regrowth) as compared to control vehicle” value ([2]; intravenous 100 μmol/kg q.d.×2 and q.d.×4, formulated in 5% mannitol, FIG. 30) does the source give for “2-thiol-5-((2-(2-methoxyethoxy)ethoxy)methyl)pyridine-N-oxide, Zn complex [5-PEG-[2]-ZnHPT]” here?
**A.** Its value is “significant anticancer activity”.

**Q.** For `On1ccccc1=S` [ZnHPT, 1-hydroxypyridine-2-thione], which inhibition of proliferation [3] is on record?
**A.** The inhibition of proliferation was “inhibits proliferation in a dose dependent manner”.

**Q.** What about the “inhibition of thioredoxin reductase” value (thioredoxin reductase) of the same molecule?
**A.** The value was “synergistic inhibition”.

**Q.** What about the bioavailability ([4]; oral, typically formulated as a suspension in vegetable oil) of the same molecule?
**A.** The bioavailability was “poorly bioavailable”.

**Q.** What about the “toxicity on oral administration” value ([4]; orally administered to laboratory animals) of the same molecule?
**A.** The value was “not found to be particularly toxic”.

**Q.** And the “growth of cancer cells in culture” value (cancer cells [5])?
**A.** The value was “inhibit the growth of cancer cells in culture”.

**Q.** Which “anticancer activity (tumor regrowth) as compared to control vehicle” value [6] does the source give for “2-thiol-5-((2-methoxyethoxy)methyl)pyridine-N-oxide, Zn complex [5-PEG-[1]-ZnHPT]” here?
**A.** The value was “significant anticancer activity”.

**Q.** With `COCCOCCOCCOCc1ccc([S-])[n+]([O-])c1.COCCOCCOCCOCc1ccc([S-])[n+]([O-])c1.[Zn+2]` [5-PEG-[3]-ZnHPT, 2-thiol-5-((2-(2-(2-methoxyethoxy)ethoxy)ethoxy)methyl)pyridine-N-oxide, Zn complex] as the molecule, how does the “anticancer activity (tumor regrowth)” value ([7]; in combination with MGd) read?
**A.** The value was “significant anticancer activity”.

**Q.** What about the “anticancer activity (tumor regrowth)” value ([7]; without MGd) of the same molecule?
**A.** The value was “significant anticancer activity”.

**Q.** And the “anticancer activity (tumor regrowth)” value ([2]; FIG. 29)?
**A.** The value was “significant anticancer activity”.

**Q.** And the “maximum tested without evidence of toxicity” value [8]?
**A.** The value was ≥ 120 µmol/kg.

**Q.** Which logKβ2 [1] does the source give for `On1ccccc1=S` [HPT] here?
**A.** Its logKβ2 is 5.4.

**Q.** Which intracellular free zinc (cancer cells [9]) does the source give for `CC(=O)[O-].CC(=O)[O-].CCc1c(CC)c2cc3nc(cnc4cc(OCCOCCOCCOC)c(OCCOCCOCCOC)cc4ncc4nc(cc1[n-]2)C(CCCO)=C4C)C(C)=C3CCCO.O.[Gd+3]` [MGd, motexafin gadolinium] here?
**A.** The intracellular free zinc was “increased intracellular free zinc”.
